Results published in publication PMC3371665 (Journal of Medicinal Chemistry, 2012).

What was measured:
mA2AAR = mA2AAR (Mus musculus, UniProt Q60613); details: read-out: Affinity (Ki) mA2A; ref Melman et al.[21]; cited from earlier work
mA1AR = molecular target: T1, mA1AR (Mus musculus, UniProt Q60612); details: read-out: Affinity (Ki) mA1; ref Melman et al.[21]; cited from earlier work
T1 sequence (Q60612 1-326): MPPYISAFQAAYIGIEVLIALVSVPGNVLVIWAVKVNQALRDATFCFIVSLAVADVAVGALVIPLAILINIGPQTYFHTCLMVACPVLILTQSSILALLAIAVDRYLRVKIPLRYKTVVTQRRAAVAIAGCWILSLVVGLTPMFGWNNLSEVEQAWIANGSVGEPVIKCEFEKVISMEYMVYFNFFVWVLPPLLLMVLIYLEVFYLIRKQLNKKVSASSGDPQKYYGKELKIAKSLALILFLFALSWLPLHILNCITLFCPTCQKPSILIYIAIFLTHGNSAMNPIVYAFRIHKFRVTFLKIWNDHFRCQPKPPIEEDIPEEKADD

mA3AR = molecular target: T2, mA3AR (Mus musculus, UniProt Q61618); details: read-out: Affinity (Ki) mA3; ref Melman et al.[21]; cited from earlier work
T2 sequence (Q61618 1-319): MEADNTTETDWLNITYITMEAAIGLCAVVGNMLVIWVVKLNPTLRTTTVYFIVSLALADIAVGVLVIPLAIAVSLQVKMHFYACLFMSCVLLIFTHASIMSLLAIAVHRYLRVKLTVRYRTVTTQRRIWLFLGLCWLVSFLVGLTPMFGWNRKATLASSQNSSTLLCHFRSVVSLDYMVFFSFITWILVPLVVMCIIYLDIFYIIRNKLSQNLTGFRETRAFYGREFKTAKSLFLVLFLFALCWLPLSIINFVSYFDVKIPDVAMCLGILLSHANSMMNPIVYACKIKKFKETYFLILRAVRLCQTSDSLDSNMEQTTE

hA2AAR = hA2AAR (Homo sapiens, UniProt P29274); assay: Radioligand binding at hA2AAR
Sequence of hA2AAR (P29274 whole entry): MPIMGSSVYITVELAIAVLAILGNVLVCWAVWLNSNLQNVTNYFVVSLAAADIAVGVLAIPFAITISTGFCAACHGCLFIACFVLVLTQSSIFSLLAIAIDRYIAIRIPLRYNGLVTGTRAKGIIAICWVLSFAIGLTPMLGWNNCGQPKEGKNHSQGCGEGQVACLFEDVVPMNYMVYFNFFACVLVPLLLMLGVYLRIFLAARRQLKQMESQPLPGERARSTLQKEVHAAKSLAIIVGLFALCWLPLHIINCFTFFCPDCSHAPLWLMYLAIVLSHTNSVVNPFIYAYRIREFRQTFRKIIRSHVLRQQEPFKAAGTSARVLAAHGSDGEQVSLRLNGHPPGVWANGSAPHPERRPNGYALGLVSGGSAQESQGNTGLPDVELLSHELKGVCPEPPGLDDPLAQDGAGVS

hA1AR = molecular target: T3, hA1AR (Homo sapiens, UniProt P30542); assay: Radioligand binding at hA1AR
T3 sequence (P30542 1-326): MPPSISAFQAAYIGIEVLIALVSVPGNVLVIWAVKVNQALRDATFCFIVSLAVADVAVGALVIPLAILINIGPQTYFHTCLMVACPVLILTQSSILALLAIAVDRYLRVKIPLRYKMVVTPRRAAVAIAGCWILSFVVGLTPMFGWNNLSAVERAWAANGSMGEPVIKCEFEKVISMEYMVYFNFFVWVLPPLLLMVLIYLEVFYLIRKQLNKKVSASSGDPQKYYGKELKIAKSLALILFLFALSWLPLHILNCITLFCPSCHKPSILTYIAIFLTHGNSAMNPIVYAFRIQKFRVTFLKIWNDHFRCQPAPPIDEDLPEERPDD

hA3AR [1] = molecular target: T4, hA3AR (Homo sapiens, UniProt P0DMS8); assay: Radioligand binding at hA3AR
T4 sequence (P0DMS8 1-318): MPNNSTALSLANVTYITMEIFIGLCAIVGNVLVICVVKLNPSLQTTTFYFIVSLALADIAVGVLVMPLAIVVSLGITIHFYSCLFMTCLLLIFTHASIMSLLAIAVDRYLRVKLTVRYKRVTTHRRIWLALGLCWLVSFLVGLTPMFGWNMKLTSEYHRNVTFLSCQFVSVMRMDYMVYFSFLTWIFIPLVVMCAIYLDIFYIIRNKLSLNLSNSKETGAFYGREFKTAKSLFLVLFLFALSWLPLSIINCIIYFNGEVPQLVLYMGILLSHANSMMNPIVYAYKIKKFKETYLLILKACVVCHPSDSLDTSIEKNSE

hA3AR [2] = molecular target: T4, hA3AR; type: cell-based; details: at 10 μM

Sequence of mA2AAR (Q60613 whole entry): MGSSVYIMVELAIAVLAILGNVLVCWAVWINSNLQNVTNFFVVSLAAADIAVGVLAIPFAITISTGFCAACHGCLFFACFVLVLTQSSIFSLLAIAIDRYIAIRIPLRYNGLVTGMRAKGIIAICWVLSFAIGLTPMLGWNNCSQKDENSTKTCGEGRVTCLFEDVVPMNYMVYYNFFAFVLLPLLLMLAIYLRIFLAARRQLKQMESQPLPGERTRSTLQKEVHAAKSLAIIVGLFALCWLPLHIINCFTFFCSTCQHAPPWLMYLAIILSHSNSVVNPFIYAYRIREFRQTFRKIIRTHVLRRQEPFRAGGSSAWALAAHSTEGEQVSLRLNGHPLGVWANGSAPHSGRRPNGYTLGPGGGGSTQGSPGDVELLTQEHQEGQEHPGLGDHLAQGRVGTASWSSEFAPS

For CNC(=O)[C@@]12C[C@@H]1[C@@H](n1cnc3c(NCc4cccc(I)c4)nc(Cl)nc31)[C@H](O)[C@@H]2O [Compound 4], the Ki (mA2AAR) is given as 5350 nM, the Ki (mA1AR) is given as 7.32 ± 1.5 nM and the Ki (mA3AR) is given as 0.8 ± 0.14 nM.

With CNC(=O)[C@@]12C[C@@H]1[C@@H](n1cnc3c(NC)nc(C#Cc4ccccc4)nc31)[C@H](O)[C@@H]2O [Compound 9, (1S,2R,3S,4R,5S)-2,3-Dihydroxy-N-methyl-4-(6-(methylamino)-2-(phenylethynyl)-9H-purin-9-yl)bicyclo[3.1.0]hexane-1-carboxamide] the inhibition at 10 µM (hA2AAR; read-out: % inhibition of radioligand binding hA2A, at 10 μM, n = 3) was under 20% and the inhibition at 10 µM (hA1AR; read-out: % inhibition of radioligand binding hA1, at 10 μM, n = 3) was under 20%.

In the case of CNC(=O)[C@@]12C[C@@H]1[C@@H](n1cnc3c(NC)nc(C#Cc4ccc(F)cc4)nc31)[C@H](O)[C@@H]2O [Compound 13, (1S,2R,3S,4R,5S)-4-(2-((4-Fluorophenyl)ethynyl)-6-(methylamino)-9H-purin-9-yl)-2,3-dihydroxy-N-methylbicyclo[3.1.0]hexane-1-carboxamide], the Ki (hA3AR [1]; Affinity (Ki) hA3, [125I]I-AB-MECA, CHO cells, n = 3–5) is reported as about 0.6 nM.

In the case of CNC(=O)[C@@]12C[C@@H]1[C@@H](n1cnc3c(NC)nc(C#Cc4ccc(C(C)(C)C)cc4)nc31)[C@H](O)[C@@H]2O [Compound 22, (1S,2R,3S,4R,5S)-4-(2-((4-tert-Butylphenyl)ethynyl)-6-(methylamino)-9H-purin-9-yl)-2,3-dihydroxy-N-methylbicyclo[3.1.0]hexane-1-carboxamide], the “reduction of A3AR binding affinity compared to the H analogue 9” value (hA3AR [1]) is reported as 12 fold.

In the case of CNC(=O)[C@@]12C[C@@H]1[C@@H](n1cnc3c(NCc4cccc(Cl)c4)nc(C#Cc4ccccc4)nc31)[C@H](O)[C@@H]2O [Compound 27, (1S,2R,3S,4R,5S)-4-(6-(3-Chlorobenzylamino)-2-(phenylethynyl)-9H-purin-9-yl)-2,3-dihydroxy-N-methylbicyclo[3.1.0]hexane-1-carboxamide], the Ki (hA1AR) is reported as over 10000 nM.

With CNC(=O)[C@@]12C[C@@H]1[C@@H](n1cnc3c(NCc4cccc(Cl)c4)nc(C#Cc4ccc(F)c(F)c4)nc31)[C@H](O)[C@@H]2O [Compound 31, (1S,2R,3S,4R,5S)-4-(6-(3-Chlorobenzylamino)-2-((3,4-difluorophenyl)ethynyl)-9H-purin-9-yl)-2,3-dihydroxy-N-methylbicyclo[3.1.0]hexane-1-carboxamide] the “agonist type at the A3AR” value (hA3AR [2]) was “full agonist”.

For CNC(=O)[C@@]12C[C@@H]1[C@@H](n1cnc3c(NCc4cccc(Cl)c4)nc(C#Cc4ccc(-c5ccccc5)cc4)nc31)[C@H](O)[C@@H]2O [Compound 34, (1S,2R,3S,4R,5S)-4-(2-(Biphenyl-4-ylethynyl)-6-(3-chlorobenzylamino)-9H-purin-9-yl)-2,3-dihydroxy-N-methylbicyclo[3.1.0]hexane-1-carboxamide], the “activity at A2A” value (hA2AAR) was “inactive” and the “activity at A1” value (hA1AR) was “inactive”.
